Test [1] deals with ES2. The test is described as follows: Cytotoxicity against human ES2 cells at 1 nM to 100 uM after 72 hrs by sulforhodamine B assay. The test is classed as functional, cell-based.
The subject of test [2] is SK-OV-3. The test is described as follows: Cytotoxicity against human SKOV3 cells at 1 nM to 100 uM after 72 hrs by sulforhodamine B assay. Type of test: functional, cell-based.
For test [3], the system named is OVCAR-3. The test is described as follows: Cytotoxicity against human OVCAR3 cells at 1 nM to 100 uM after 72 hrs by sulforhodamine B assay. Type of test: functional, cell-based. (In general: The SRB assay estimates cell density from bound dye.)
Test [4] has as its system SK-OV-3. The test is described as follows: Inhibition of CCNB1 mRNA expression in human SKOV3 cells at 1 uM by RT-PCR analysis. The test is classed as functional, cell-based.
In test [5] the test system is SK-OV-3. The test is described as follows: Inhibition of CCNB1 protein expression in human SKOV3 cells at 1 uM by Western blot analysis. The test is classed as functional, cell-based.
In test [6] the test system is ES2. The test is described as follows: Inhibition of CCNB1 mRNA expression in human ES2 cells at 1 uM by RT-PCR analysis. The test is classed as functional, cell-based.
In test [7] the test system is ES2. The test is described as follows: Inhibition of CCNB1 protein expression in human ES2 cells at 1 uM by Western blot analysis. The test is classed as functional, cell-based. (In general: In western blotting, separated proteins are transferred to a membrane and probed.)
Test [8] deals with SK-OV-3. The test is described as follows: Inhibition of CDC25B mRNA expression in human SKOV3 cells at 1 uM by RT-PCR analysis. Type of test: functional, cell-based.
Test [9] deals with SK-OV-3. The test is described as follows: Inhibition of FOXM1 mRNA expression in human SKOV3 cells at 1 uM by RT-PCR analysis. The test is classed as functional, cell-based.
In test [10] the test system is OVCAR-3. The test is described as follows: Inhibition of CCNB1 protein expression in human OVCAR3 cells at 1 uM by Western blot analysis. The test is classed as functional, cell-based.
In test [11] the test system is SK-OV-3. The test is described as follows: Inhibition of FOXM1 protein expression in human SKOV3 cells at 1 uM by Western blot analysis. The test is classed as functional, cell-based.
Test [12] relates to ES2. The test is described as follows: Inhibition of FOXM1 mRNA expression in human ES2 cells at 1 uM by RT-PCR analysis. Type of test: functional, cell-based.
Test [13] relates to SK-OV-3. The test is described as follows: Cytotoxicity against human SKOV3 cells after 72 hrs by sulforhodamine B assay. The test is classed as functional, cell-based. The following applies: SK-OV-3, 72 h.
Test [14] concerns ES2. The test is described as follows: Inhibition of FOXM1 protein expression in human ES2 cells at 1 uM by Western blot analysis. Type of test: functional, cell-based.
Test [15] can be described thus: Cytotoxicity against human ES2 cells after 72 hrs by sulforhodamine B assay. Type of test: functional, cell-based. The following applies: ES-2, 72 h.
Test [16] concerns OVCAR-3. The test is described as follows: Cytotoxicity against human OVCAR3 cells after 72 hrs by sulforhodamine B assay. The test is classed as functional, cell-based. The following applies: OVCAR-3, 72 h.
Test [17] relates to ES2. The test is described as follows: Inhibition of CDC25B mRNA expression in human ES2 cells at 1 uM by RT-PCR analysis. The test is classed as functional, cell-based.
The subject of test [18] is OVCAR-3. The test is described as follows: Inhibition of FOXM1 protein expression in human OVCAR3 cells at 1 uM by Western blot analysis. The test is classed as functional, cell-based.
Test [19] concerns ES2. The test is described as follows: Cytotoxicity against human ES2 cells at 10 uM after 72 hrs by sulforhodamine B assay. Type of test: functional, cell-based.
For test [20], the system named is OVCAR-3. The test is described as follows: Cytotoxicity against human OVCAR3 cells at 10 uM after 72 hrs by sulforhodamine B assay. Type of test: functional.
For test [21], the system named is SK-OV-3. The test is described as follows: Cytotoxicity against human SKOV3 cells at 10 uM after 72 hrs by sulforhodamine B assay. Type of test: functional.

Calls of active or inactive are those of the source. No cut-off for these calls is given here.

As for `CC(=O)Nc1ccccc1[N+](=O)[O-]`, the result in [1], in [2] and in test [3] was inactive.

Regarding `c1ccc(Nc2cc3ccccc3c3ccccc23)cc1`, the inhibition entry in [4], in test [5], in test [6], in test [7], in test [8] and in [9] was “Active” in each case. In addition, the inhibition entry in test [10], in test [11], in [12], in test [14], in test [17] and in [18] was “Active” in each case. In addition, the half-maximal inhibitory concentration (IC50) in test [13], in [15] and in [16] was 1000 nM in each case.

As for `O=C(Nc1ccc2ncccc2c1)Nc1ccc2ncccc2c1`, the result in test [19] was inactive. In addition, the Activity in test [20] and in test [21] was 20% each time.

What is called IC50 is the concentration that gives 50% inhibition. The low end stands for greater potency, the high end for weaker potency.

(Values after ChEMBL document CHEMBL3600317, “In silico investigation of FOXM1 binding and novel inhibitors in epithelial ovarian cancer” (Bioorg Med Chem, 2015).)
